Results on 3 molecules are retold here after ChEMBL document CHEMBL1122732, “Vitamin K dependent carboxylation: synthesis and biological properties of tetrazolyl analogues of pentapeptidic substrates” (J Med Chem, 1984).

For orientation: pKi means −log10 of the Ki, conventionally taken in molar units. A word on the Km: it is the substrate concentration at which the rate is half of its maximum.

pKi: −log10 of the molar value.

A short description of assay [1]: (§1) Compound were evaluated for its binding affinity against vitamin K dependent carboxylation.
A short description of assay [2]: as §1. This is another data set of the same source.

`CC(C)C[C@H](NC(=O)[C@@H](N)Cc1ccccc1)C(=O)N[C@@H](CCc1nn[nH]n1)C(=O)N[C@@H](CCc1nn[nH]n1)C(=O)N[C@H](C(=O)O)C(C)C` gave a pKi in assay [1] of 2.51. H-FLEEV-OH had a pKi in assay [1] of 1.70. Consider `CC(C)C[C@H](NC(=O)[C@@H](N)Cc1ccccc1)C(=O)N[C@@H](CCC1N=NN=N1)C(=O)N[C@@H](CCC1N=NN=N1)C(=O)N[C@H](C(=O)O)C(C)C`, for which the pKi in assay [1] was 2.52. In assay [2], the Km came out at 3000 µM.
